# According to patent US9580524B2, “Vinylcyclopropane, monomer composition, polymer, polymer composition, and article” (Dexerials Corporation, priority 2014, dated 2017):
# How the values were obtained:
# [1] = Volume change upon polymerization (monomer and polymer density by dry automatic pycnometer); type: physicochemical; settings: for Volume change: ((Monomer density)−(Polymer density))/(Monomer density)×100, positive = expansion, negative = shrinkage; for Polymer density: after polymerization; for Polymer density / Monomer density: 25° C.; for Monomer density: prior to polymerization
# Experimental: Volume change relative to monomer volume refers to the change in volume of the polymer relative to the volume of the monomer or monomers that are constituent components of the polymer. This volume change relative to monomer volume is obtained through the following equation by measuring the density of the monomer(s) at 25° C. prior to polymerization (monomer density) and the density of the polymer at 25° C. after polymerization (polymer density). ((Monomer density)−(Polymer density))/(Monomer density)×100(%)
# First, polymerization of the obtained monomer (compound represented by structural formula (6)) was performed as follows.
# A freezing ampoule (20 mL) was charged with 4.03 mg of AIBN (4 mol %), 440.2 mg (0.61 mmol) of Ad-MVCP, and 0.267 g (0.31 mL) of toluene, and the monomer was dissolved. Thereafter, freeze drying was performed three times and dissolved oxygen was removed. The freezing ampoule was immersed in an oil bath and was heated for 48 hours at 60° C. to polymerize the monomer. After polymerization, the freezing ampoule was cooled by liquid nitrogen to quench radicals. Next, 50 mL of toluene was added to the freezing ampoule in order to dissolve undissolved components other than the polymer and suction filtration was then performed. Polymer filtered onto filter paper as a result was washed with toluene and acetone, was vacuum dried for 48 hours at 100° C., and was collected as a white solid polymer. The collected polymer was used as an evaluation sample.
# The volume change upon polymerization was calculated using the following equation by measuring the monomer density and polymer density of each sample prepared by the procedure described above using a dry automatic pycnometer (AccuPyc II 1340 produced by Shimadzu Corporation). ((Monomer density)−(Polymer density))/(Monomer density)×100(%)
# A positive calculated value indicates volume expansion whereas a negative calculated value indicates volume shrinkage.
# Note that in Comparative Example 3, polymerization of the monomer was performed by bulk polymerization based on the aforementioned document. A freezing ampoule (20 mL) was charged with 15.8 mg (0.096 mmol) of AIBN and 1.000 g (2.41 mmol) of Me-MVCP, and the monomer was dissolved. Thereafter, freeze drying was performed three times and dissolved oxygen was removed. The freezing ampoule was immersed in an oil bath and was heated for 48 hours at 60° C. to polymerize the monomer. After polymerization, the freezing ampoule was cooled by liquid nitrogen to quench radicals. Next, 50 mL of toluene was added to the freezing ampoule in order to dissolve undissolved components other than the polymer and suction filtration was then performed. Polymer filtered onto filter paper as a result was sufficiently washed with toluene and acetone, was vacuum dried for 48 hours while heating at 100° C., and was collected as a white solid polymer. The collected polymer was used as an evaluation sample.
# Note that in Example 2, 0.159 g (0.479 mmol) of DCP, 0.341 g (0.479 mmol) of Ad-MVCP, and 0.2 mL of toluene (dehydrated) were added into an ampoule with a stirrer, were heated to 70° C., and were homogenized by stirring. After performing cooling to room temperature, a dilute solution of AIBN (6.3 mg (0.038 mmol) of AIBN dissolved in 0.28 mL of toluene (dehydrated)) was added to the ampoule. The ampoule was sealed using a gas burner after performing freeze degassing of the ampoule. The ampoule was immersed in an oil bath and a reaction was carried out for 48 hours at 60° C. After the reaction, the ampoule was immersed in liquid nitrogen and a polymer was collected. The resultant polymer was sufficiently washed with toluene and acetone and was vacuum dried for 48 hours while heating at 100° C., and a white solid polymer was collected. The collected polymer was used as an evaluation sample.
# Ad-MVCP in an amount of 0.153 g (0.215 mmol) and DCP in an amount of 0.072 g (0.216 mmol) were dissolved and homogenized in 0.3 mL of acetone. […]
# [2] = Polymer dynamic viscoelasticity (DMA, tension mode) of the cured product; type: physicochemical; settings: for Tg (glass-transition temperature): maximum of tan δ, frequency 11.0 Hz
# Experimental: The obtained monomer was homogenized with 0.5 parts by mass of PERHEXA HC (producer: NOF Corporation) and 0.2 mL of acetone added thereto, was subsequently poured into a 10 mm×40 mm×0.5 mm silicone rubber sheet mold prepared on an aluminum plate, and was transferred into a vacuum oven. Acetone solvent was first vaporized while maintaining the temperature at room temperature and the pressure at 20 cmHg to 40 cmHg, and thereafter the pressure was restored to normal pressure and curing was performed for 5 hours at 140° C. to prepare a cured product. The cured product that was prepared was evaluated by measurement as described below using a tension mode of a dynamic mechanical analyzer (DMA).
# The cured product was set in the dynamic mechanical analyzer (producer: TA Instruments, product name: RSA3) and the device was used to measure the storage modulus (E′) in a temperature range of from 30° C. to 300° C. with a heating rate of 10.0° C./min. Furthermore, the temperature corresponding to a maximum value of tan δ (loss modulus/storage modulus) obtained under a measurement condition of a frequency of 11.0 Hz was taken to be the glass-transition temperature (Tg).
# [3] = Monomer solubility in various solvents; type: physicochemical; settings: 40 mg monomer in 1.0 mL
# Experimental: The solubility of 40 mg of the obtained monomer in 1.0 mL of various solvents (methyl ethyl ketone (MEK), acetone, propylene glycol monomethyl ether acetate (PGMEA), and cyclohexanone) was evaluated.
# [4] = Polymer heat resistance (thermogravimetric analyzer); type: physicochemical; settings: homopolymer
# Experimental: Heat resistance of the polymer used in (i) evaluation of volume change upon polymerization was evaluated using a thermogravimetric analyzer (producer: Seiko Instruments Incorporated, product name: EXSTAR6000). Furthermore, thermogravimetric change of the obtained polymer was measured to obtain a temperature at which a 10% reduction in weight was reached and the 10% weight loss temperature was taken to be the pyrolysis temperature (Td^10).
# [5] = background statement; cited from earlier work
Volume change [1],Polymer density [1] [g/mL],Monomer density [1] [g/mL],Tg (glass-transition temperature) [2] [°C],Solubility ([3]; Acetone),Solubility ([3]; Cyclohexanone),Solubility ([3]; MEK),Solubility ([3]; PGMEA),"Td^10 (pyrolysis temperature, 10% weight loss temperature) [4] [°C]",Compound,solubility in solvents such as acetone [5],"E′ (storage modulus) ([2]; 50° C., 5 hours at 140° C.)",E′ (storage modulus) ([2]; 120° C.),E′ (storage modulus) ([2]; 140° C.),E′ (storage modulus) ([2]; 160° C.)
+4.3%,1.127,1.178,23,Poor,Mediocre,Poor,Poor,361,"C=CC1CC1(C(=O)OC12CC3CC(CC(C3)C1)C2)C(=O)OC12CC3CC(CC(C3)C1)C2 (stereo not shown) [Comparative Example 2, 1,1-bis[(1-adamantyloxy)carbonyl]-2-vinylcyclopropane]",poor,–,–,–,–
+6.1%,1.198,1.275,235,Excellent,Excellent,Excellent,Excellent,399,"C=CC1CC1(C(=O)OC12CC3CC(CC(C3)C1)C2)C(=O)OC12CC3CC(C1)CC(OC(=O)C1(C(=O)OC45CC6CC(CC(C6)C4)C5)CC1C=C)(C3)C2 (stereo not shown) [Example 1, 1,3-bis[(1-adamantyloxycarbonyl-2-vinylcyclopropane-1-yl)carbonyloxy]adamantane]",–,1.10 × 10^9 Pa,7.40 × 10^8 Pa,6.60 × 10^8 Pa,7.00 × 10^8 Pa

Compound,Volume change [1],Polymer density [1] [g/mL],Monomer density [1] [g/mL],Tg (glass-transition temperature) [2] [°C],Solubility ([3]; Acetone),Solubility ([3]; Cyclohexanone),Solubility ([3]; MEK),Solubility ([3]; PGMEA),"Td^10 (pyrolysis temperature, 10% weight loss temperature) [4] [°C]",solubility in solvents such as acetone [5],"E′ (storage modulus) ([2]; 50° C., 5 hours at 140° C.)",E′ (storage modulus) ([2]; 120° C.),E′ (storage modulus) ([2]; 140° C.),E′ (storage modulus) ([2]; 160° C.)
tricyclodecane dimethanol dimethacrylate [Comparative Example 1],−8.5%,1.194,1.101,>271.1,–,–,–,–,–,–,1.70 × 10^9 Pa,9.60 × 10^8 Pa,8.00 × 10^8 Pa,6.60 × 10^8 Pa
